How the values were obtained:
AGTR1 = molecular target: T1, AGTR1 (Homo sapiens, UniProt P30556); test: DiscoveRx β-arrestin2 recruitment assay (enzyme complementation, Pathunter CHO-K1 AGTR1 β-arrestin cell line); format: cell-based; details: DiscoveRx β-arrestin2 recruitment; for DiscoveRx β-arrestin2 Ymax (%): maximal response
T1 construct: host or cells: Pathunter CHO-K1 AGTR1 β-arrestin cell line (CHO-K1)
T1 sequence (P30556 1-359): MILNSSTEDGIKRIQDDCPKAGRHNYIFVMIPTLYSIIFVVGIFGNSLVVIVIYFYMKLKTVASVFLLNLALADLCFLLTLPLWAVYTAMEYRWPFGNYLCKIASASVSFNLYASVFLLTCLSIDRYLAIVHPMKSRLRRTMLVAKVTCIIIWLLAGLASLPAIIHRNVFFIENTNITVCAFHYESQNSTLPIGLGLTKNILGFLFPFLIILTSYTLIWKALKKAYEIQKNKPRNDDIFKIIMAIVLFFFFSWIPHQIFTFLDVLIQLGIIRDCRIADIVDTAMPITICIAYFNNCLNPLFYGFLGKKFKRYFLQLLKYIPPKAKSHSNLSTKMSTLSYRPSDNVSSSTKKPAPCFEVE
How it was run: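 CHO-K1 cells expressing AGTR1 with β-arrestin2 enzyme-complementation reporter, plated 14-16 h ahead in 1% serum medium, then exposed to compounds for 90 min at 37° C. Chemiluminescence read after 1 h detection. EC50 (agonist) or IC50 (antagonist) from 4-parameter logistic fit; activity as percentage of All maximal effect.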

hAT1R = molecular target: T2, hAT1R (Homo sapiens, UniProt P30556); test: BRET Gq biosensor assay, agonist response, HEK293 cells; format: cell-based; details: section of the 42nd table directly before the BRET P63 section
T2 sequence (P30556 1-359): T1 sequence (P30556 1-359)
Description: BRET β-arrestin2 and Gq Activation Assays
In another aspect of the invention, association of the ATIR with signaling proteins is assessed using bioluminescence resonance energy transfer assays (Stephane Angers, Ali Salahpour et al. 2002). This technology measures the association between bioluminescent and fluorescent protein tags.
Several of the plasmid constructs used in BRET experiments were previously described. Briefly, the coding sequence of β-arrestin2 was fused to Renilla luciferase II to generate β-arrestin2-Rluc (Quoyer, Janz et al. 2013). The membrane targeting motif from K-Ras, CAAX motif (GKKKKKKSKTKCVIM), was fused to Renilla GFP to create rGFP-CAAX plasmid (Namkung Y et al., Nat Commun (2016) 7, 12178). The Renilla luciferase II was inserted in the Gaq protein to generate Gaq-Rluc (Breton, Sauvageau et al. 2010). The Gγ1 protein was tagged with GFP10 to obtain GFP-Gyl, using the same strategy described previously for GFP-Gy2 (Gales, Rebois et al. 2005). The Gaq binding domain of the p63RhoGEF protein (amino acids 295-502) was fused to Renilla luciferase II to create P63-Rluc. Finally, the hAT1R plasmid construct encoding the receptor was generated by optimizing the coding sequence of human angiotensin II receptor (GeneOptimizer from ThermoFisher), and adding an artificial cleavable signal peptide from bovine prolactin ([…]) in N-terminus of the receptor to increase cell surface expression.
Gq Biosensor Assay HEK293 cells were cultured in DMEM supplemented with Penicillin-Streptomycin and 10% fetal bovine serum. Two days before the BRET experiment, HEK293 cells were transfected with hAT1R expression plasmid (200 ng/well) as well as Gaq-Rluc (100 ng/well), Gβ1 (375 ng/well) and GFP-Gγ1 (625 ng/well), using linear polyethylenimine 25 kDa (PEI) at a PEI:DNA ratio of 3:1. Transfected cells were directly seeded in 96-well plates, at a density of 35 000 cells per well, and maintained in culture for the next 48 h.
BRET experiments were carried out subsequently using the following procedures: cells were washed once with Tyrode's buffer (137 mM NaCl, 1 mM CaCl2, 0.9 mM KCl, […], 3.6 mM NaH2PO4, 5.5 mM glucose, 12 mM NaHCO3, and 25 mM HEPES, pH 7.4) and 90 μl of Tyrode's buffer was added to each well. Cells were equilibrated in their new buffer at room temperature for at least 30 minutes. Following the equilibration period, the coelenterazine substrate was first added to the cells, 10 μl per well of a 10×solution (prolume purple coelenterazine at a final concentration of 2 μM), immediately followed by compound addition using the HP D300 digital dispenser from Tecan (10 singlicate concentrations). Cells were incubated for 5 min at room temperature and BRET readings were then collected using a Synergy Neo Multi-Mode reader from BioTek with BRET2 filters 410/515, to record agonist response. […] A second reading was collected 5 min after this second addition, using the Synergy Neo Multi-Mode reader from BioTek with BRET2 filters 410/515, to record antagonist response. The BRET signal was determined by calculating the ratio of the light emitted by GFP (515 nm) over the light emitted by the Rluc (410 nm). To analyze agonist response, BRET signal values were converted into percentage of activation using the non-stimulated control as 0% and AngII maximal response as 100%. Sigmoidal concentration-response curves were generated with those normalized values using a 4-parameter logistic equation (IDBS ActivityBase software), to determine EC50 of the different compounds. In the case of antagonist response analysis, BRET signal values were converted into percentage of inhibition using the fixed dose of AngII (corresponding to the EC50) as 0% and non-stimulated control as 100%. Sigmoidal concentration-response curves were generated with those normalized values using a 4-parameter logistic equation (IDBS ActivityBase software), to determine IC50 of the different compounds.

Structure (SMILES) | EC50 (AGTR1) [nM] | DiscoveRx β-arrestin2 Ymax (%) (AGTR1) | EC50 (hAT1R) [nM]
CCOc1nc2cccc(C(=O)O)c2n1Cc1ccc(-c2cc(-c3ccc(OC)cn3)ccc2-c2noc(=O)[nH]2)cc1 [Example 308] | 29.1 | 51.8 | 27.3
CCOc1nc2cccc(C(=O)O)c2n1Cc1ccc(-c2cc(N3CC(C)(C)c4ccccc43)ccc2C(=O)O)cc1 [Example 319, 1-((2′-carboxy-5′-(3,3-dimethylindolin-1-yl)-[1,1′-biphenyl]-4-yl)methyl)-2-ethoxy-1H-benzo[d]imidazole-7-carboxylic acid] | 71.1 | 49.0 | 787
CCOc1nc2cccc(C(=O)O)c2n1Cc1ccc(-c2cc(-c3cnc(OC)c(C)c3)ccc2-c2nn[nH]n2)cc1 [Example 328, 2-ethoxy-1-((5′-(6-methoxy-5-methylpyridin-3-yl)-2′-(2H-tetrazol-5-yl)-[1,1′-biphenyl]-4-yl)methyl)-1H-benzo[d]imidazole-7-carboxylic acid] | 802 | 51.8 | 2620
CCCCc1nc(Cl)c(C(=O)O)n1Cc1ccc(-c2cc(N3CCC[C@H](C)C3)ccc2-c2noc(=O)[nH]2)cc1 [Example 407, (S)-2-butyl-4-chloro-1-((5′-(3-methylpiperidin-1-yl)-2′-(5-oxo-4,5-dihydro-1,2,4-oxadiazol-3-yl)-[1,1′-biphenyl]-4-yl)methyl)-1H-imidazole-5-carboxylic acid] | 173 | 24.6 | 16600
CCCCc1nc(Cl)c(C(=O)O)n1Cc1ccc(-c2cc(-n3ccc4ccccc43)ccc2-c2noc(=O)[nH]2)cc1 [Example 408] | 23.3 | 32.5 | > 100000
CCCCc1nc(Cl)c(C(=O)OCc2oc(=O)oc2C)n1Cc1ccc(-c2cc(-c3ccccc3)ccc2-c2nn[nH]n2)cc1 [Example 411] | 30.9 | 56.4 | 17
CCCc1nc(CC)c(C(=O)OCc2oc(=O)oc2C)n1Cc1ccc(-c2cc(-c3ccccc3)ccc2-c2nn[nH]n2)cc1 [Example 412, (5-methyl-2-oxo-1,3-dioxol-4-yl)methyl 1-((6′-(2H-tetrazol-5-yl)-[1,1′:3′,1′″-terphenyl]-4-yl)methyl)-4-ethyl-2-propyl-1H-imidazole-5-carboxylate] | 11.7 | 64.1 | 62.7
CCCCc1nc(Cl)c(C(=O)O)n1Cc1ccc(-c2cc(-n3ccc4ccccc43)ccc2-c2nn[nH]n2)cc1 [Example 417] | 5.9 | 39.6 | > 100000
